Reference: PMC10178848, “Modulating fast skeletal muscle contraction protects skeletal muscle in animal models of Duchenne muscular dystrophy” (The Journal of Clinical Investigation, 2023)
Where two headings read alike, the source gives them in different places.

Tests used:
[1] = molecular target: T1, smooth muscle myosin S1 isolated from chicken gizzard (Gallus gallus, UniProt P10587); experiment: Actin-activated myosin S1 ATPase, smooth muscle; format: biochemical
T1 construct: purchased Cytoskeleton Inc; host or cells: chicken gizzard
Experimental: Smooth muscle chicken gizzard S1 was purchased from Cytoskeleton Inc. Other myosin S1 was prepared via published protocols ([21]). Briefly, fresh rabbit psoas and frozen porcine ventricular muscle (Pel-freez) were extracted in 0.3 M KCl, 0.15 M KH2PO4, 1 mM EGTA, 1 mM ATP, 1 mM DTT, pH 6.5, at 4°C. Full-length myosin was purified from each extract via low-ionic precipitations with final precipitation into PM12 buffer (12 mM PIPES, pH 7.0, 2 mM MgCl2). Purified myosin was resuspended in PIPES/EDTA buffer (20 mM PIPES, pH 6.8, 10 mM EDTA, 1 mM DTT) and reacted with 0.2 mg/mL α-chymotrypsin for 30 minutes at room temperature. Proteolysis was quenched with PMSF (final concentration 100 μM), and the reaction was centrifuged for 45 minutes at 230,000g. S1 fragment in the supernatant was dialyzed into PM12 with 0.02% sodium azide and clarified by centrifugation. Sucrose was added to 10% w/v and flash-frozen in liquid N2 and stored at –80°C. […]
A lactate dehydrogenase/pyruvate kinase enzyme-coupled system ([62]) was used to monitor ATP hydrolysis rates in various muscle preparations. […] A multidrop cassette (Thermo Fisher Scientific) dispensed 10 μL of the coupled enzyme system, calcium, and myofibrils to 10 μL ATP, NADH and PEP to initiate the reaction prior to reading on a plate reader (Envision, Perkin Elmer) for 10 minutes per plate at room temperature. […]

[2] = test system: psoas S1 (fast skeletal muscle myosin); experiment: Stopped-flow analysis of Pi release from myosin; format: biochemical, rabbit; set-up: dose or concentration left out as unconfirmed; details: preincubation with myosin 30 minutes prior to actin
Experimental: The rate of Pi release from myosin with actin utilized a fluorescent phosphate binding protein, as described previously ([63]). Experiments were performed in 10 mM MOPS, pH 7.0; 5 mM KCL; 1 mM EGTA; 1 mM DTT; 0.5 mM MgCl2. ATP and ADP were removed by incubation with apyrase ([64]). Prior to mixing with 1 mM ATP in a stopped flow device, compound was incubated with 6 μM psoas S1 at 25°C for 30 minutes.

[3] = test system: EDL muscles from mdx mice; experiment: Ex vivo eccentric (lengthening) contraction injury, mdx EDL; set-up: species or system mouse
Experimental: Isometric force was measured ex vivo in mouse EDL and soleus muscle. EDL muscle eccentric injury was based on published protocols ([30]), with degree of lengthening and stimulation modified to yield a uniform drop in mdx isometric and peak force over 10 contractions. After isolation, muscle was mounted via 5-0 suture to a combination servomotor/force transducer (300C-LR, Aurora) between 2 electrodes connected to a stimulator (701C, Aurora) in Ringers solution at 27°C with continuously infused CO2/O2 gas mixture. Experiments were recorded with custom MATLAB software via a National Instruments PCIe-6321 board and 2090A BNC connector. Muscles were preincubated for 60 minutes with DMSO (final 0.1%)/compound before 10 eccentric contractions, 1 minute apart, with 100 milliseconds of isometric stimulation at 100 Hz and active lengthening of 0.1 L0 at a rate of 2 L0/s. After lengthening, muscles were held at 1.1 L0 with stimulation for 100 milliseconds (Supplemental Figure 2A).

ABL1-phosphorylated = molecular target: T2, ABL1-phosphorylated (Homo sapiens, UniProt P00519); experiment: KINOMEscan scanEDGE; format: binding; details: 20 uM
T2 construct: purchased Eurofins DiscoverX (KINOMEscan; SAFETYscan E/IC50 ELECT)

CDK11 = molecular target: T3, CDK11 (Homo sapiens, UniProt Q9BWU1); experiment: KINOMEscan scanEDGE; format: binding; details: 20 uM
T3 construct: purchased Eurofins DiscoverX (KINOMEscan; SAFETYscan E/IC50 ELECT)

IKK-beta = molecular target: T4, IKK-beta (Homo sapiens, UniProt O14920); experiment: KINOMEscan scanEDGE; format: binding; details: 20 uM
T4 construct: purchased Eurofins DiscoverX (KINOMEscan; SAFETYscan E/IC50 ELECT)

INSR = molecular target: T5, INSR (Homo sapiens, UniProt P06213); experiment: KINOMEscan scanEDGE; format: binding; details: 20 uM
T5 construct: purchased Eurofins DiscoverX (KINOMEscan; SAFETYscan E/IC50 ELECT)

MAP3K4 = molecular target: T6, MAP3K4 (Homo sapiens, UniProt Q9Y6R4); experiment: KINOMEscan scanEDGE; format: binding; details: 20 uM
T6 construct: purchased Eurofins DiscoverX (KINOMEscan; SAFETYscan E/IC50 ELECT)

MARK3 = molecular target: T7, MARK3 (Homo sapiens, UniProt P27448); experiment: KINOMEscan scanEDGE; format: binding; details: 20 uM
T7 construct: purchased Eurofins DiscoverX (KINOMEscan; SAFETYscan E/IC50 ELECT)

PDPK1 = molecular target: T8, PDPK1 (Homo sapiens, UniProt O15530); experiment: KINOMEscan scanEDGE; format: binding; details: 20 uM
T8 construct: purchased Eurofins DiscoverX (KINOMEscan; SAFETYscan E/IC50 ELECT)

PIK3CG = molecular target: T9, PIK3CG (Homo sapiens, UniProt P48736); experiment: KINOMEscan scanEDGE; format: binding; details: 20 uM
T9 construct: purchased Eurofins DiscoverX (KINOMEscan; SAFETYscan E/IC50 ELECT)

SNARK = molecular target: T10, SNARK (Homo sapiens, UniProt Q9H093); experiment: KINOMEscan scanEDGE; format: binding; details: 20 uM
T10 construct: purchased Eurofins DiscoverX (KINOMEscan; SAFETYscan E/IC50 ELECT)

SRC = molecular target: T11, SRC (Homo sapiens, UniProt P12931); experiment: KINOMEscan scanEDGE; format: binding; details: 20 uM
T11 construct: purchased Eurofins DiscoverX (KINOMEscan; SAFETYscan E/IC50 ELECT)

KvLQT1/minK = molecular target: T12, KvLQT1/minK (Homo sapiens, UniProt P51787); experiment: SAFETYscan Ion Channel; format: cell-based; set-up: dose or concentration left out as unconfirmed
T12 construct: purchased Eurofins DiscoverX (KINOMEscan; SAFETYscan E/IC50 ELECT)
Experimental: (§1) The specificity of EDG-5506 for fast skeletal myosin over other, unrelated proteins was confirmed using two off-target binding and activity screens. […] A second off-target panel (SAFETYscan E/IC50 ELECT, Eurofins DiscoverX) tested in vitro enzyme activity against 78 proteins, including GPCR, ion channel, kinases, nuclear hormone receptors, and transporters. In all assays, the IC50 of EDG-5506 was more than 10 μM (Supplemental Data File 1).

nAChR(a4/b2) = molecular target: T13, nAChR(a4/b2) (Homo sapiens, UniProt P17787+P43681); experiment: SAFETYscan Ion Channel; format: cell-based; set-up: dose or concentration left out as unconfirmed
T13 construct: purchased Eurofins DiscoverX (KINOMEscan; SAFETYscan E/IC50 ELECT)
Experimental: as §1

AR = molecular target: T14, AR (Homo sapiens, UniProt P10275); experiment: SAFETYscan NHR Nuclear Translocation; format: cell-based; set-up: dose or concentration left out as unconfirmed
T14 construct: purchased Eurofins DiscoverX (KINOMEscan; SAFETYscan E/IC50 ELECT)
Experimental: as §1

[4] = read-out: Max Response (%) (Agonist)
[5] = read-out: Max Response (%) (Antagonist)

T14 sequence (P10275 whole entry): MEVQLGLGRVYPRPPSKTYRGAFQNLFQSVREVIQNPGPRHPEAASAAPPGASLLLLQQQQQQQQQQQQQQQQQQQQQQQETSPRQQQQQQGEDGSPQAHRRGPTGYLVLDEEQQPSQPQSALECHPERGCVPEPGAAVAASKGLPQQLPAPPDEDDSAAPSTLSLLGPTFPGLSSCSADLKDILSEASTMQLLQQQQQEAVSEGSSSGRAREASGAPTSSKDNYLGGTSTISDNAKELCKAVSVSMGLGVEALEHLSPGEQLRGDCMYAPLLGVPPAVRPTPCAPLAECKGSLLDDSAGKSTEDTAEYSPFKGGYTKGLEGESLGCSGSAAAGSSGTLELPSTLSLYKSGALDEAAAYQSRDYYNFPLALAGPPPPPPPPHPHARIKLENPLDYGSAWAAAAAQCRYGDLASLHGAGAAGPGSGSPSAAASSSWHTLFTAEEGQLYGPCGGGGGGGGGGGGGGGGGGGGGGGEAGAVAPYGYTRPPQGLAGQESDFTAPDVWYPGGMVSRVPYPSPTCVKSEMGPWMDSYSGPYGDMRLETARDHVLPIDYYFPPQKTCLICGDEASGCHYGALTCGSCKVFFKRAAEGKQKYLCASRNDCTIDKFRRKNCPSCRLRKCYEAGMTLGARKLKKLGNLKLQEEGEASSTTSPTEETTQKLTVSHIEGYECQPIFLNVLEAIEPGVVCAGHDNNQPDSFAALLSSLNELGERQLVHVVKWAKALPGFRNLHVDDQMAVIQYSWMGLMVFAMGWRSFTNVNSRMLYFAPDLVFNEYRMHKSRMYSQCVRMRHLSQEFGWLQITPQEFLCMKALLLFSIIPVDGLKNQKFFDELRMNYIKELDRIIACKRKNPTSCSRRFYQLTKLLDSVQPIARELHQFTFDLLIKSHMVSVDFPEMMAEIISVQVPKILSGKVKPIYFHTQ
T13 sequence (P43681 29-627 limits assumed): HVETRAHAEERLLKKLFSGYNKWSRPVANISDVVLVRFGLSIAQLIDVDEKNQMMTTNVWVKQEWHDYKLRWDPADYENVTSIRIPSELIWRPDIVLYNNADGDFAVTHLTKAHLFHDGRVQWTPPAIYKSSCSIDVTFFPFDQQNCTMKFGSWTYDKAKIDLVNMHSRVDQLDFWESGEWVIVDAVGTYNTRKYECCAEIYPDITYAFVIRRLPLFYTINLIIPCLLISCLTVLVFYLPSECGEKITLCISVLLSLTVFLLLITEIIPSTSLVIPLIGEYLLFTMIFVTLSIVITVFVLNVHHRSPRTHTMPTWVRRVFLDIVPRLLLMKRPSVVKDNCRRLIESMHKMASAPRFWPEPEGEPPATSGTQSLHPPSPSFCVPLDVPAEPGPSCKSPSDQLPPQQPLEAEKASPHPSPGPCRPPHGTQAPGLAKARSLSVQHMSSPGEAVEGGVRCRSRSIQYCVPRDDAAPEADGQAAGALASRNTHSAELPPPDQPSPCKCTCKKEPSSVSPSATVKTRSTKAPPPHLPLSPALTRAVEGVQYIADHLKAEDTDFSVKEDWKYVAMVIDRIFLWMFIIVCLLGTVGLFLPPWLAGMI
T13 sequence (P17787 26-502): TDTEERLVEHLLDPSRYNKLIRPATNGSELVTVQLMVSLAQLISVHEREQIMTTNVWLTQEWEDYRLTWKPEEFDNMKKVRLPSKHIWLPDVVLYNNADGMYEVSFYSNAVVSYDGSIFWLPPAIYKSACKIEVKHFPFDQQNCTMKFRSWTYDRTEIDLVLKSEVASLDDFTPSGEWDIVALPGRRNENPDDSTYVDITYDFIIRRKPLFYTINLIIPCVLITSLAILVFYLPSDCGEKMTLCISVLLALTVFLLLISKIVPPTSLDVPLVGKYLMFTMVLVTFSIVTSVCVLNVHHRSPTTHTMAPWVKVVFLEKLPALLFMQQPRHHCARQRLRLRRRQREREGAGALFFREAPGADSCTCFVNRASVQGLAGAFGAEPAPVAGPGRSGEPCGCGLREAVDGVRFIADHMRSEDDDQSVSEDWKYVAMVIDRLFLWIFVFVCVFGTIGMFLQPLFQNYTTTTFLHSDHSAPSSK
T5 sequence (P06213 28-1382): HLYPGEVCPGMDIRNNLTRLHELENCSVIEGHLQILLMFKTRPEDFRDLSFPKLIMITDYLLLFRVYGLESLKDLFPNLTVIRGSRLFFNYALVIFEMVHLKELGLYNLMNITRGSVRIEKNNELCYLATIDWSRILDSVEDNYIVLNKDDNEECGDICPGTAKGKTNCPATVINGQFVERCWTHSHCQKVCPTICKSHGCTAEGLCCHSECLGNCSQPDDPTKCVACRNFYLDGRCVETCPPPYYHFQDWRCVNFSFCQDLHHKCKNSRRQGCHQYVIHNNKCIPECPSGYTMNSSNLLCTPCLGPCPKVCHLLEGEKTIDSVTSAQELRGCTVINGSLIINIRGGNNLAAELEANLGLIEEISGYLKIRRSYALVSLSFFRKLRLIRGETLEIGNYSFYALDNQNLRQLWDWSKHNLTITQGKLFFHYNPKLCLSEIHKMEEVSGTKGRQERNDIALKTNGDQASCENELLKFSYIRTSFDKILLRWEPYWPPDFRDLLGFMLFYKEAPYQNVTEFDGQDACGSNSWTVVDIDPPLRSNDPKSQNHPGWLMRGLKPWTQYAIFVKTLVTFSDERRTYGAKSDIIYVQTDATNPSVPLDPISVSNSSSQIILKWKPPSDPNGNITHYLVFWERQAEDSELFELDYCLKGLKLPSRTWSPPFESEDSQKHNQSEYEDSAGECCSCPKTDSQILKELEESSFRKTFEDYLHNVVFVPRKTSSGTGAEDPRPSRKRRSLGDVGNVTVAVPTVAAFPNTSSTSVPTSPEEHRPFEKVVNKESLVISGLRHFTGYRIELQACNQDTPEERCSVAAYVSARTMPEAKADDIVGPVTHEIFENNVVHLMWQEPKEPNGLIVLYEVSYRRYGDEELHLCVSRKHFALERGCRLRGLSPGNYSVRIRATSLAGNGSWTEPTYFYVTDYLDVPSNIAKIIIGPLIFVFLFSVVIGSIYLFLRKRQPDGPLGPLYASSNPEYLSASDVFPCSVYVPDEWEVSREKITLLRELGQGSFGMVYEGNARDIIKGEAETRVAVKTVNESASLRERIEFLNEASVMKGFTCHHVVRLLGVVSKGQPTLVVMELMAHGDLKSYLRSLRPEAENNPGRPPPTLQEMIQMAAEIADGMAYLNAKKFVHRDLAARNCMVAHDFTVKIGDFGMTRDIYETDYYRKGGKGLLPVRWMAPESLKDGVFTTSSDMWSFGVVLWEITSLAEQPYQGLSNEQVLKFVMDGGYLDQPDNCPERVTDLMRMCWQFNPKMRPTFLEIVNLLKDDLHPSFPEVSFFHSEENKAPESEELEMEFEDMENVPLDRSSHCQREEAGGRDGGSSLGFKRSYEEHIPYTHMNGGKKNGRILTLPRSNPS
T8 sequence (O15530 whole entry): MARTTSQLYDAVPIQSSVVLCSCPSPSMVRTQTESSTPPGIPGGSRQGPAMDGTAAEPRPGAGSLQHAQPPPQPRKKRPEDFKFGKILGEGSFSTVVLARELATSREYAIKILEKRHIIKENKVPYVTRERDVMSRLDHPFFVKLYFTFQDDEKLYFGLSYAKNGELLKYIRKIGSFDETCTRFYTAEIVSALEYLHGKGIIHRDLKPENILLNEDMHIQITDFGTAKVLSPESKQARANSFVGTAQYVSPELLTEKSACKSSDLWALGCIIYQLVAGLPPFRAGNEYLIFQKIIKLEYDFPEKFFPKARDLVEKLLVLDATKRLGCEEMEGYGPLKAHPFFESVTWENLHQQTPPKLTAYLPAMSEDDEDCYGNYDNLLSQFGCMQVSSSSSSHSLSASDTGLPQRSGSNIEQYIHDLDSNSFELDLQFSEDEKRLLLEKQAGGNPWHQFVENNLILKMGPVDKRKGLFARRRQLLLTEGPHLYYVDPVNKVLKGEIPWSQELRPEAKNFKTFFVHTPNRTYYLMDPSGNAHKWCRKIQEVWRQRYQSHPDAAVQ
T2 sequence (P00519 whole entry): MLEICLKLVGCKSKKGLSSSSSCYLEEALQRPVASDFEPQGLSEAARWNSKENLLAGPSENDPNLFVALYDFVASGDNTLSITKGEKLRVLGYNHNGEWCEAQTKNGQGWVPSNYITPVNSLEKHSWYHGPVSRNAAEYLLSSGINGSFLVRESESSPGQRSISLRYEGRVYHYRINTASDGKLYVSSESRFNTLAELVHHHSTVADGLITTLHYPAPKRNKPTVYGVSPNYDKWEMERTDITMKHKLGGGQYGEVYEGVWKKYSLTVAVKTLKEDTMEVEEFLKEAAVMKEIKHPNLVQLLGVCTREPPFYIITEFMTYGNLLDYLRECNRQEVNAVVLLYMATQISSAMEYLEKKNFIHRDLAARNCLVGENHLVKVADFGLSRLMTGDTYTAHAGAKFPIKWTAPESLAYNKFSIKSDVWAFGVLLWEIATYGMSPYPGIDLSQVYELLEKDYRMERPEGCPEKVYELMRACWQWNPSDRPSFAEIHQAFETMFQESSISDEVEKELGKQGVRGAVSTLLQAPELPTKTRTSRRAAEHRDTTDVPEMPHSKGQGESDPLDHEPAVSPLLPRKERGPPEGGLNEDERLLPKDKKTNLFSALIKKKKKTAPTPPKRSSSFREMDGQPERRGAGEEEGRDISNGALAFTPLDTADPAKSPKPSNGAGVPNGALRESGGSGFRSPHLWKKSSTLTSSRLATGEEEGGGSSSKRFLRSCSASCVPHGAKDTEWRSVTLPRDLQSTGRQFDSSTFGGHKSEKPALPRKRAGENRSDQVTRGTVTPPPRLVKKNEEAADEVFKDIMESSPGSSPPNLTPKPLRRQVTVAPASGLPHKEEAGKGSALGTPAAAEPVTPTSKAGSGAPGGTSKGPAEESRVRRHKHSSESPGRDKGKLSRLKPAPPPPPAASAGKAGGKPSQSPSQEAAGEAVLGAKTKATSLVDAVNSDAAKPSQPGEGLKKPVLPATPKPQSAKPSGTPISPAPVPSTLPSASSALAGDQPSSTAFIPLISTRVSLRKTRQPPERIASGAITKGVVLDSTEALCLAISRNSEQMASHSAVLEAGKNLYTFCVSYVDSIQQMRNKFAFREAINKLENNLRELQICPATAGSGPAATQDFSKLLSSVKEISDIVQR

O=c1ccc(-c2cnc(OCC(F)(F)F)nc2)nn1Cc1cncc(F)c1 [EDG-5506]
IC50 [1]: > 100 µM | rate of Pi release from myosin with actin [2]: decreased the rate of Pi release | inhibition at 1 µM ([3]; Mus musculus, at ≤1 μM (near maximal protection), read-out: inhibition of isometric force): ~15% | strength drop with repeated lengthening contractions ([3]; mdx EDL ex vivo): dramatically lowered | concentration giving near maximal protection from strength drop ([3]; mdx EDL, 10 lengthening contractions, 1-hour preincubation): ≤ 1 µM | binding, % of control (ABL1-phosphorylated): 72 % of control | binding, % of control (CDK11): 95 % of control | binding, % of control (IKK-beta): 94 % of control | binding, % of control (INSR): 96 % of control | binding, % of control (MAP3K4): 90 % of control | binding, % of control (MARK3): 85 % of control | binding, % of control (PDPK1): 95 % of control | binding, % of control (PIK3CG): 100 % of control | binding, % of control (SNARK): 100 % of control | binding, % of control (SRC): 100 % of control | Emax (KvLQT1/minK; [4]): 0% | Emax (KvLQT1/minK; [5]): 18.6% | Emax (nAChR(a4/b2); [4]): 0% | Emax (nAChR(a4/b2); [5]): 0% | Emax (AR; [4]): 0% | Emax (AR; [5]): 0%
